Reference: patent EP4692091A1, “CA[…], AND PHARMACEUTICAL COMPOSITION, PREPARATION METHOD THEREFOR AND USE THEREOF” (Changchun Genescience Pharmaceutical Co., Ltd., priority 2023, dated 2024)

Tests used:
[1] = Pharmacokinetic test in SD rats; format: in vivo; details: rat, 2 mg/kg, male SD rats, single intravenous injection, 2 mpk, plasma
Procedure: After a single intravenous injection (dose: 2 mpk) of the compounds 6-2, 11-2, 17-2, and Dxd into male SD rats (blood collection time points: 0.083 h, 0.25 h, 0.5 h, 1 h, 2 h, 4 h, 8 h, and 24 h after IV administration, totaling 8 blood collection time points), average pharmacokinetic parameters in the plasma are as shown in Table 5: Table 5 Pharmacokinetic test result of representative compounds

[2] = Stability of compounds in human plasma; format: in vitro ADME; details: 37°C, 5 µmol/L
Procedure: • (1) 199 µL of human plasma was added to the culture plate of each cell. The culture plate was preheated to 37°C, and kept at this temperature for 15 min. • (2) After preincubation, 1 µL of 1 mmol/L each test compound and 1 µL of 1 mmol/L control compound were added to 199 µL of plasma, so that a final concentration of each test compound was 5 µmol/L and that of the control compound was 5 µmol/L. The final concentration of the organic solvent was 0.5%. The experiment would be duplicated twice. • (3) Reaction samples were incubated at 37°C. • (4) The reaction was stopped by adding 600 µL of cold methanol containing the internal standard at 0, 1, 2, 6, and 24 h. Each sample was vortex mixed for 10 min, and then centrifuged at 3,220 g for 30 min to precipitate the protein. […] Based on the signal response and peak shapes of liquid chromatography-mass spectrometry (LC-MS), the supernatant would be diluted with ultrapure water.
All calculations were performed using Microsoft Excel. The peak area ratio was determined from the chromatogram of extracted ions. The percentage of compounds remaining at each time point was calculated as per the following formula: Residual percentagetmin (%) = peak area ratiotmin /peak areat0 × 100 [formula]

CYP2D6 = CYP2D6 (Homo sapiens, UniProt P10635); assay: CYP inhibition in human hepatomicrosomes, CYP2D6
Chain of CYP2D6 (P10635 whole entry): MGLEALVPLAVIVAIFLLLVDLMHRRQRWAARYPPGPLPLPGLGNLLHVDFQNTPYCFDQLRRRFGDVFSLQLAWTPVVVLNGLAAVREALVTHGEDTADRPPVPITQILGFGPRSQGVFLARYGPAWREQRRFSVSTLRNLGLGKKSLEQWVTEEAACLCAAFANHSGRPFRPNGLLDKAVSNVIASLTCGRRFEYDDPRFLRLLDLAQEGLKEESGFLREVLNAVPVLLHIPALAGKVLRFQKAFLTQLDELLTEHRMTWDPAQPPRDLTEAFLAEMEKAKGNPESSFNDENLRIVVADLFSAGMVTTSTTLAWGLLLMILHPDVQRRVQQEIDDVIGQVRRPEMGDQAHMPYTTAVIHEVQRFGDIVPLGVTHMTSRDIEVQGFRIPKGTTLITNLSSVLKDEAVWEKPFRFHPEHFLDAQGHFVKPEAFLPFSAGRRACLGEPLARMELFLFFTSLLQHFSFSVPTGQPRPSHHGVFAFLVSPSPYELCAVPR

CYP1A2 = CYP1A2 (Homo sapiens, UniProt P05177); assay: CYP inhibition in human hepatomicrosomes, CYP1A2
Chain of CYP1A2 (P05177 whole entry): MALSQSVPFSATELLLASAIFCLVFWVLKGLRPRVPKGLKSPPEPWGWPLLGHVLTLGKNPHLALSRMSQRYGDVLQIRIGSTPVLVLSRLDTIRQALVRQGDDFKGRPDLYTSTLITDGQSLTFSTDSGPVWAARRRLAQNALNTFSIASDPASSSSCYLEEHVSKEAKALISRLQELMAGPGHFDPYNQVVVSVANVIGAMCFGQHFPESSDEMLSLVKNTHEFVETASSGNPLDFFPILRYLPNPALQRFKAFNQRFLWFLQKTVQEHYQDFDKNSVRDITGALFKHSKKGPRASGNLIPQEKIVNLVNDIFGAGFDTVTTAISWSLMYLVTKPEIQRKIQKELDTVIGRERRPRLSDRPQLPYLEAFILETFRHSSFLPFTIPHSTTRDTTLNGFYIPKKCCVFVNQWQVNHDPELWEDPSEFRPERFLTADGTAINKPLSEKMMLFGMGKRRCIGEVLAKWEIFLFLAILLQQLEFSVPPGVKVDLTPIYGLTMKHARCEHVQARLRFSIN

NCI-N87 = assay: Inhibition of proliferation of NCI-N87 cells by test compounds (CellTiter-Glo, 72 h); format: cell-based; details: Homo sapiens, NCI-N87, 72 h, NCI-N87, 72 h incubation
Outline: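 NCI-N87 cells were treated after adhesion with compound (final DMSO 0.33%) for 72 h at 37°C. Viability was read as CellTiter-Glo luminescence, and IC50 came from a four-parameter nonlinear fit.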

SK-BR-3 = assay: Inhibition of proliferation of SK-BR-3 cells by compounds (CellTiter-Glo, 72 h); format: cell-based; details: Homo sapiens, SK-BR-3, 72 h, SK-BR-3, 72 h incubation
Outline: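 SK-BR-3 cells plated in 384-well format, allowed to adhere, then exposed to compound (0.33% DMSO final) for 72 h at 37 °C, 5% CO2. Viability read by CellTiter-Glo luminescence; IC50 from four-parameter nonlinear fit.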

[3] = Stability of compounds in human plasma; format: in vitro ADME; details: 37°C, 5 µmol/L, read-out: Residual percentage (%)

For CC[C@@]1(O)C(=O)OCc2c1cc1n(c2=O)Cc2c-1nc1cc(F)c(C)c3c1c2[C@@H](NC(=O)CO)CC3 [Dxd], the AUC(0-inf) [1] was 302 ng·h/mL, the AUC(0-t) [1] was 301 ng·h/mL and the C0 [1] was 748 ng/mL. It also gave a clearance [1] of 113 mL/min/kg, a half-life [1] of 23.4 min and a Vd ([1]; read-out: Vss) of 2.7 L/kg. For the same molecule, the “Residual percentage (%)” value ([2]; 0 h) was 100.00%, the remaining at 1 h, 5 µM ([2]; 1 h, read-out: Residual percentage (%)) was 89.4% and the remaining at 2 h, 5 µM ([2]; 2 h, read-out: Residual percentage (%)) was 86.8%. For the same molecule, the remaining at 6 h, 5 µM ([2]; 6 h, read-out: Residual percentage (%)) was 86.4%, the remaining at 24 h, 5 µM ([2]; 24 h, read-out: Residual percentage (%)) was 82.3% and the IC50 (CYP2D6) was over 30 µM. The IC50 (CYP1A2) was over 30 µM, the IC50 (NCI-N87) was 0.011 µM and the IC50 (SK-BR-3) was 0.011 µM. The remaining at 4 h, 5 µM [3] was 83.6%.
